Laboratory results reported in the NIST ThermoML archive (doi:10.1016/j.fluid.2007.04.030).

Assay: xn = mol fraction of the nth substance listed
Settings: 101 kPa, Liquid

COc1cc2c(cc1O)CC1c3c(cc(O)c(OC)c3-2)CCN1C (configuration not stated) [boldine] + CO
mass density [kg/m3]
Settings | x1 = 0.00099 | x1 = 0.002 | x1 = 0.00302 | x1 = 0.00406 | x1 = 0.00513 | x1 = 0.00788 | x1 = 0.01077 | x1 = 0.01696 | x1 = 0.02389
283.15 K | 804.63 | 808.15 | 811.7 | 815.24 | 818.83 | 827.92 | 837.15 | 856.15 | 875.72
288.15 K | 799.96 | 803.48 | 807.04 | 810.59 | 814.19 | 823.28 | 832.53 | 851.55 | 871.15
293.15 K | 795.27 | 798.79 | 802.35 | 805.91 | 809.51 | 818.62 | 827.88 | 846.93 | 866.56
298.15 K | 790.57 | 794.1 | 797.66 | 801.22 | 804.83 | 813.95 | 823.21 | 842.29 | 861.96
303.15 K | 785.86 | 789.39 | 792.96 | 796.52 | 800.14 | 809.27 | 818.54 | 837.63 | 857.34
308.15 K | 781.12 | 784.66 | 788.23 | 791.8 | 795.42 | 804.56 | 813.85 | 832.96 | 852.69
313.15 K | 776.35 | 779.89 | 783.47 | 787.05 | 790.67 | 799.82 | 809.13 | 828.27 | 848.03
318.15 K | 771.55 | 775.1 | 778.68 | 782.26 | 785.89 | 795.05 | 804.37 | 823.55 | 843.34
323.15 K | 766.71 | 770.26 | 773.84 | 777.43 | 781.07 | 790.25 | 799.58 | 818.78 | 838.61
328.15 K | 761.83 | 765.38 | 768.97 | 772.57 | 776.2 | 785.4 | 794.75 | 813.97 | 833.84
333.15 K | 756.89 | 760.45 | 764.05 | 767.65 | 771.29 | 780.5 | 789.86 | 809.11 | 829.02

COc1cc2c(cc1O)CC1c3c(cc(O)c(OC)c3-2)CCN1C (configuration not stated) [boldine] + CCO
mass density [kg/m3]
Settings | x1 = 0.00151 | x1 = 0.0036 | x1 = 0.00737 | x1 = 0.01217 | x1 = 0.0177 | x1 = 0.02066 | x1 = 0.02425 | x1 = 0.02539
283.15 K | 801.79 | 806.58 | 815.68 | 826.69 | 838.83 | 845.25 | 852.81 | 855.28
288.15 K | 797.54 | 802.33 | 811.43 | 822.44 | 834.59 | 841.01 | 848.57 | 851.04
293.15 K | 793.27 | 798.06 | 807.16 | 818.18 | 830.32 | 836.74 | 844.3 | 846.79
298.15 K | 788.97 | 793.77 | 802.87 | 813.89 | 826.03 | 832.46 | 840.02 | 842.51
303.15 K | 784.65 | 789.45 | 798.55 | 809.57 | 821.71 | 828.14 | 835.71 | 838.2
308.15 K | 780.3 | 785.1 | 794.2 | 805.23 | 817.37 | 823.79 | 831.35 | 833.86
313.15 K | 775.91 | 780.71 | 789.81 | 800.84 | 813 | 819.42 | 826.97 | 829.49
318.15 K | 771.49 | 776.27 | 785.38 | 796.41 | 808.57 | 815 | 822.56 | 825.07
323.15 K | 767.01 | 771.79 | 780.9 | 791.93 | 804.1 | 810.54 | 818.09 | 820.6
328.15 K | 762.47 | 767.24 | 776.37 | 787.4 | 799.57 | 806.01 | 813.57 | 816.08
333.15 K | 757.86 | 762.64 | 771.76 | 782.8 | 794.98 | 801.42 | 808.99 | 811.5
